In data set [1] the test system is mouse embryonic stem cells. The conditions noted are these: ref Portilho et al., 2021; cited from earlier work.
The next data set relates to Dnmt1. Particulars: murine pre-implantation Dnmt3a/3b knockout embryos; ref Haggerty et al., 2021; cited from earlier work.
The next data set addresses full-length DNMT1 (Homo sapiens, UniProt P26358). The data set can be described thus: radioactive scintillation proximity assay. It counts as biochemical. (In general: SPA uses beads or plates that emit light when radiolabelled molecules are held near them.)
The next data set concerns acute myeloid leukemia. Particulars: mouse models of acute myeloid leukemia; ref Pappalardi et al., 2021; cited from earlier work.
A further data set has as its system cancer cell. The conditions noted are these: in vitro; ref Pappalardi et al., 2021; cited from earlier work.
The subject of data set [2] is more than 300 protein kinases and 30 other methyltransferases (MTases), including DNMT3a and 3b. Particulars: ref Pappalardi et al., 2021; cited from earlier work.

Where a name gives a salt, the structure may show the parent alone.

The IC50 is the concentration that inhibits the measured activity by half.

Sequence of full-length DNMT1 (P26358 whole entry): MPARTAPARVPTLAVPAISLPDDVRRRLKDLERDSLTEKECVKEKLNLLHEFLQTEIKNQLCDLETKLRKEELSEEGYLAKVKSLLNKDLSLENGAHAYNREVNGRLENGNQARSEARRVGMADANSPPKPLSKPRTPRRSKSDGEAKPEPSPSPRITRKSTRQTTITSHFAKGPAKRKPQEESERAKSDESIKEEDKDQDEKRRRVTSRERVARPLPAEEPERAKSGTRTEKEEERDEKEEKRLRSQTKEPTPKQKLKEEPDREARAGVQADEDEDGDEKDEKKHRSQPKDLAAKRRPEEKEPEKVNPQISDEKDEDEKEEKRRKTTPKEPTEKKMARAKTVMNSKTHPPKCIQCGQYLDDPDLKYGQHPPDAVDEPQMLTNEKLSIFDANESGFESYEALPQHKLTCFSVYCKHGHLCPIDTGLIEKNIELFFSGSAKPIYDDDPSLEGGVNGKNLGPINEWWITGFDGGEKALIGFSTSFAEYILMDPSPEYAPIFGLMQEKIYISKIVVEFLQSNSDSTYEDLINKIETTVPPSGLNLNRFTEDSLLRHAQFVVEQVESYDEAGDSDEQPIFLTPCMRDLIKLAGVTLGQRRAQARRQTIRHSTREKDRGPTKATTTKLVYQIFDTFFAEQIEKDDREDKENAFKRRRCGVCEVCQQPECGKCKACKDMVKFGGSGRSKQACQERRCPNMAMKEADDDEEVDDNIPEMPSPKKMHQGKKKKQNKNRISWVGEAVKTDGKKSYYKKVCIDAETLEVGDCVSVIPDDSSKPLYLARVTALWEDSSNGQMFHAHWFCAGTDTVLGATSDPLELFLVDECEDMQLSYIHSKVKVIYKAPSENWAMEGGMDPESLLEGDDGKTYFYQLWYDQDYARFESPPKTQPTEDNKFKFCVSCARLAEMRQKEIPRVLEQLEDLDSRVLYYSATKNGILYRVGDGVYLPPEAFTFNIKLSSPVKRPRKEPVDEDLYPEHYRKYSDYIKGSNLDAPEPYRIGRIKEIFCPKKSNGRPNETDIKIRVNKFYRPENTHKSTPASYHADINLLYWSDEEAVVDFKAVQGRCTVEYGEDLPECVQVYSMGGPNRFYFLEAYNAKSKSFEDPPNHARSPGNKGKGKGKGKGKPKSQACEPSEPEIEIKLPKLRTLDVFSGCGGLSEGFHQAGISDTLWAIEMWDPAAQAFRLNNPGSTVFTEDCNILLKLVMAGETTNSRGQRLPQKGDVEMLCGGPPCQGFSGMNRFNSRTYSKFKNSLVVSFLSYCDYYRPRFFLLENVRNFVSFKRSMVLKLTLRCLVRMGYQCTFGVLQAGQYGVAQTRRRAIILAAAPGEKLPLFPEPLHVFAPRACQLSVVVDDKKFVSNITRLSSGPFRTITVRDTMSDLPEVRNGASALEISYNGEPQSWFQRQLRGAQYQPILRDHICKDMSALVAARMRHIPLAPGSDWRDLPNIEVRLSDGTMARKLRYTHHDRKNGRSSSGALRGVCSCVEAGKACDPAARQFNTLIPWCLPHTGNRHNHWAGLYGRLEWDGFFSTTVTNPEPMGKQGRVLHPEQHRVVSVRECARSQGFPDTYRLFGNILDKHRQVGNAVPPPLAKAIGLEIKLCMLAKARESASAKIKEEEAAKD

For the compound `CCc1c(C#N)c(SC(C(N)=O)c2ccccc2)nc(N(C)C)c1C#N` (stereo not shown) [GSK3484862], in data set [1], the demethylation result is on record as “demethylation in mouse embryonic stem cells, in a level similar to that observed with Dnmt1 knockouts” and the non-specific toxicity entry is on record as “minimal non-specific toxicity”. Further, the “inhibition of Dnmt1” value with Dnmt1 is given as “inhibits Dnmt1”.

With `CCc1c(C#N)c(SC(C(N)=O)c2ccccc2)nc(N2CCCN(CCO)CC2)c1C#N` (stereo not shown) [GSK3543105, 2-((3,5-dicyano-4-ethyl-6-(4-(2-hydroxyethyl)-1,4-diazepan-1-yl)pyridin-2-yl)thio)-2-phenylacetamide], the concentration for half-maximal inhibition (IC50) at full-length DNMT1 lay within 30 to 60 nM.

With `CCc1c(C#N)c(SC(C(N)=O)c2ccccc2)nc(N2CCC(N)CC2)c1C#N` (stereo not shown) [GSK3685032], the “tumor regression and survival compared with decitabine (Dacogen)” value with acute myeloid leukemia was “superior to decitabine”. For the same compound, the “inhibition of cancer cell growth” value in the data set with cancer cell is on record as “inhibits cancer cell growth”. For the same compound, the “selectivity for DNMT1” value in data set [2] is “selective for DNMT1 over more than 300 protein kinases and 30 other methyltransferases”.

For the compound `CCc1c(C#N)c(SCc2ccc(CNC(=O)CN)cc2)nc(N2CCCN(C)CC2)c1C#N` [GSK3735967, 2-amino-N-(4-(((3,5-dicyano-4-ethyl-6-(4-methyl-1,4-diazepan-1-yl)pyridin-2-yl)thio)methyl)benzyl)acetamide], the half-maximal inhibitory concentration (IC50) at full-length DNMT1 was in the range of 30 to 60 nM.

Turning to `CCc1c(C#N)c(N[C@@H](C(N)=O)c2ccccc2)nc(N2CCC(N)CC2)c1C#N` [GSK3830334, (R)-2-((6-(4-aminopiperidin-1-yl)-3,5-dicyano-4-ethylpyridin-2-yl)amino)-2-phenylacetamide], the “reduced potency relative to the ~30-60 nM compounds” value at full-length DNMT1 (full-length DNMT1, 40-mer hemimethylated DNA duplex, radioactive SPA) is on record as 3-6 fold.

In the case of `CCc1c(C#N)c(SC(C(N)=O)c2ccc(C(F)(F)F)cc2)nc(N2CCC(N)CC2)c1C#N` (stereo not shown) [GSK3852279, 2-((6-(4-aminopiperidin-1-yl)-3,5-dicyano-4-ethylpyridin-2-yl)thio)-2-(4-(trifluoromethyl)phenyl)acetamide trifluoroacetate], on full-length DNMT1, the IC50 is 30 to 60 nM.

The values above are taken from publication PMC9177618 (Structure (London, England : 1993), 2022).
